{"source": "patent US20050009924A1", "about": "(priority 2003, published 2005)", "key": {"[1]": {"system": "non-small-cell lung cancer cells H1299", "test": "MTT relative viability, PhTERT-SEAP (H1299) cells", "conditions": "PhTERT-SEAP(hTERT-H1299)", "protocol": "The tetrazolium reagent (MTT; 3-(4,5-di-methylthiazol)-2,5-diphenyl tetrazolium bromide, USB) was designed to yield a colored formazan upon metabolic reduction by viable cells. Approximately […] cells were plated onto each well of a 96-well plate and incubated in 5% CO2 at 37° C. for 24 h. To assess the in vitro cytotoxicity, each compound was dissolved in DMSO and prepared immediately before the experiments and was diluted into the complete medium before addition to cell cultures. Test compounds were then added to the culture medium for designated various concentrations. After 48 h, an amount of 25 μL of MTT was added to each well, and the samples were incubated at 37° C. for 4 h. A 100 μL solution of lysis buffer containing 20% SDS and 50% N,N-dimethylformamide was added to each well and incubated at 37° C. for another 16 h. The absorbency at 550 nm was measured using an ELISA reader.\nNon small lung cancer cells H1299 (telomerase positive) were grown in RPMI 1640 media supplemented with 10% fetal bovine serum, 100 units/mL penicillin and 100 mg/mL streptomycin in a humidified atmosphere with 5% CO2 at 37° C. The hTERT immortalized hTERT-BJ1 (BD Biosciences Clontech)^39 were grown in DMEM media supplemented with 10% fetal calf serum, 100 units/mL penicillin and 100 mg/mL streptomycin, 1 mM sodium pyruvate, and 4 mM I-arginine in a humidified atmosphere with 5% CO2 at 37° C. Culture media were changed every 3 days. […] The stable clones derived from H1299 or hTERT-BJ1 were cultured using conditions that are similar to their parental cells."}, "[2]": {"system": "transcriptional activity of hTERT", "test": "SEAP reporter assay of hTERT expression, PhTERT-SEAP (H1299)", "assay_type": "cell-based, human", "conditions": "PhTERT-SEAP(hTERT-H1299)", "method": "(§1) Secreted alkaine phosphatase was used as the reporter system to monitor the transcriptional activity of hTERT. Here, about […] each were grown in 96-well plates and incubated at 37° C. for 24 h and changed with fresh media. Varying amounts of drugs were added and cells were incubated for another 24 h. Culture media were collected and heated at 65° C. for 10 min to inactivate heat-labile phosphatases. An equal amount of SEAP buffer (2 M diethanolamine, 1 mM MgCl2, and 20 mM […]) was added to the media and p-nitrophenyl phosphate was added to a final concentration of 12 mM. Absorptions at 405 nm were taken, and the rate of absorption increase is determined.\n(§2) Culture media were changed every 3 days. […] The stable clones were selected using G418."}, "human hepatoma G2 cells": {"system": "human hepatoma G2 cells", "test": "Cytotoxicity assay (XTT colorimetric), Hep G2", "assay_type": "cell-based", "conditions": "48 h of drug exposure"}, "rat glioma C6 cells": {"system": "rat glioma C6 cells", "test": "Cytotoxicity assay (XTT colorimetric), C6 cells", "assay_type": "cell-based", "conditions": "48 h of drug exposure"}, "[3]": {"system": "hepatitis B virus transfected hepatoma cell lines, HepG 2.2.15 cells", "test": "Cytotoxicity assay, 2.2.15 cells", "assay_type": "cell-based, human", "conditions": "48 h of drug exposure"}, "hTERT-BJ1 cells": {"system": "hTERT-BJ1 cells", "test": "MTT relative viability, PhTERT-SEAP (hTERT-BJ1) cells", "conditions": "PhTERT-SEAP (hTERT-BJ1)"}, "[4]": {"system": "transcriptional activity of hTERT", "test": "SEAP reporter assay of hTERT expression, PhTERT-SEAP (hTERT-BJ1)", "assay_type": "cell-based, human", "conditions": "PhTERT-SEAP (hTERT-BJ1)", "method": "as §1, §2"}}}
{"smiles": "O=C(Nc1ccc(NC(=O)c2cccc(F)c2)c2c1C(=O)c1ccccc1C2=O)c1cccc(F)c1", "note": "[VI12, 1,4-Bis(3-fluorobenzoylamido)-9,10-anthracenedione]", "values": [{"measurement": "Relative MTT viability (%)", "setting": "[1]; 2.0 μM", "result": "105 ± 6.8", "unit": "%"}, {"measurement": "Relative MTT viability (%)", "setting": "[1]; 20 μM", "result": "96 ± 7.4", "unit": "%"}, {"measurement": "Relative MTT viability (%)", "setting": "[1]; 207 μM", "result": "66 ± 5.5", "unit": "%"}, {"measurement": "Relative SEAP activity (%)", "setting": "[2]; 2.0 μM", "result": "102 ± 2.9", "unit": "%"}, {"measurement": "SEAP/vibility", "setting": "[2]; 2.0 μM", "result": 0.98}, {"measurement": "Relative SEAP activity (%)", "setting": "[2]; 20 μM", "result": "110 ± 6.5", "unit": "%"}, {"measurement": "SEAP/vibility", "setting": "[2]; 20 μM", "result": 1.14}, {"measurement": "Relative SEAP activity (%)", "setting": "[2]; 207 μM", "result": "106 ± 9.4", "unit": "%"}, {"measurement": "SEAP/vibility", "setting": "[2]; 207 μM", "result": 1.59}, {"measurement": "IC50", "setting": "human hepatoma G2 cells", "result": "> 20", "unit": "µM"}, {"measurement": "IC50", "setting": "rat glioma C6 cells", "result": "> 20", "unit": "µM"}, {"measurement": "IC50", "setting": "[3]", "result": "> 20", "unit": "µM"}, {"measurement": "Relative MTT viability (%)", "setting": "hTERT-BJ1 cells; 2.0 μM", "result": "102 ± 1.5", "unit": "%"}, {"measurement": "Relative MTT viability (%)", "setting": "hTERT-BJ1 cells; 20 μM", "result": "97 ± 2.9", "unit": "%"}, {"measurement": "Relative MTT viability (%)", "setting": "hTERT-BJ1 cells; 207 μM", "result": "85 ± 2.6", "unit": "%"}, {"measurement": "Relative SEAP activity (%)", "setting": "[4]; 2.0 μM", "result": "107 ± 11.9", "unit": "%"}, {"measurement": "SEAP/vibility", "setting": "[4]; 2.0 μM", "result": 1.05}, {"measurement": "Relative SEAP activity (%)", "setting": "[4]; 20 μM", "result": "108 ± 15.5", "unit": "%"}, {"measurement": "SEAP/vibility", "setting": "[4]; 20 μM", "result": 1.11}, {"measurement": "Relative SEAP activity (%)", "setting": "[4]; 207 μM", "result": "95 ± 13.9", "unit": "%"}, {"measurement": "SEAP/vibility", "setting": "[4]; 207 μM", "result": 1.12}]}
{"smiles": "O=C(Nc1ccc(NC(=O)c2c(Cl)cc(Cl)cc2Cl)c2c1C(=O)c1ccccc1C2=O)c1c(Cl)cc(Cl)cc1Cl", "note": "[VI13, 1,4-Bis(2,4,6-trichlorobenzoylamido)-9,10-anthracenedione]", "values": [{"measurement": "Relative MTT viability (%)", "setting": "[1]; 1.5 μM", "result": "113 ± 4.8", "unit": "%"}, {"measurement": "Relative MTT viability (%)", "setting": "[1]; 15 μM", "result": "107 ± 5.4", "unit": "%"}, {"measurement": "Relative MTT viability (%)", "setting": "[1]; 153 μM", "result": "20 ± 3.3", "unit": "%"}, {"measurement": "Relative SEAP activity (%)", "setting": "[2]; 1.5 μM", "result": "98 ± 4.5", "unit": "%"}, {"measurement": "SEAP/vibility", "setting": "[2]; 1.5 μM", "result": 0.87}, {"measurement": "Relative SEAP activity (%)", "setting": "[2]; 15 μM", "result": "66 ± 2.4", "unit": "%"}, {"measurement": "SEAP/vibility", "setting": "[2]; 15 μM", "result": 0.61}, {"measurement": "Relative SEAP activity (%)", "setting": "[2]; 153 μM", "result": "41 ± 3.9", "unit": "%"}, {"measurement": "SEAP/vibility", "setting": "[2]; 153 μM", "result": 0.03}, {"measurement": "IC50", "setting": "human hepatoma G2 cells", "result": 2.77, "unit": "µM"}, {"measurement": "IC50", "setting": "rat glioma C6 cells", "result": "> 20", "unit": "µM"}, {"measurement": "IC50", "setting": "[3]", "result": 3.63, "unit": "µM"}, {"measurement": "Relative MTT viability (%)", "setting": "hTERT-BJ1 cells; 1.5 μM", "result": "98 ± 8.5", "unit": "%"}, {"measurement": "Relative MTT viability (%)", "setting": "hTERT-BJ1 cells; 15 μM", "result": "63 ± 7.0", "unit": "%"}, {"measurement": "Relative MTT viability (%)", "setting": "hTERT-BJ1 cells; 153 μM", "result": "40 ± 22.2", "unit": "%"}, {"measurement": "Relative SEAP activity (%)", "setting": "[4]; 1.5 μM", "result": "31 ± 23.0", "unit": "%"}, {"measurement": "SEAP/vibility", "setting": "[4]; 1.5 μM", "result": 0.32}, {"measurement": "Relative SEAP activity (%)", "setting": "[4]; 15 μM", "result": "12 ± 12.5", "unit": "%"}, {"measurement": "SEAP/vibility", "setting": "[4]; 15 μM", "result": 0.19}, {"measurement": "Relative SEAP activity (%)", "setting": "[4]; 153 μM", "result": "4 ± 15", "unit": "%"}, {"measurement": "SEAP/vibility", "setting": "[4]; 153 μM", "result": 0.09}]}
{"smiles": "O=C(Nc1ccc(NC(=O)c2c(F)ccc(F)c2F)c2c1C(=O)c1ccccc1C2=O)c1c(F)ccc(F)c1F", "note": "[VI14, 1,4-Bis(2,3,6-trifluorobenzoylamido)-9,10-anthracenedione]", "values": [{"measurement": "Relative MTT viability (%)", "setting": "[1]; 1.8 μM", "result": "111 ± 2.9", "unit": "%"}, {"measurement": "Relative MTT viability (%)", "setting": "[1]; 18 μM", "result": "89 ± 3.7", "unit": "%"}, {"measurement": "Relative MTT viability (%)", "setting": "[1]; 180 μM", "result": "55 ± 3.3", "unit": "%"}, {"measurement": "Relative SEAP activity (%)", "setting": "[2]; 1.8 μM", "result": "91 ± 5.2", "unit": "%"}, {"measurement": "SEAP/vibility", "setting": "[2]; 1.8 μM", "result": 0.82}, {"measurement": "Relative SEAP activity (%)", "setting": "[2]; 18 μM", "result": "97 ± 4.1", "unit": "%"}, {"measurement": "SEAP/vibility", "setting": "[2]; 18 μM", "result": 1.09}, {"measurement": "Relative SEAP activity (%)", "setting": "[2]; 180 μM", "result": "91 ± 3.3", "unit": "%"}, {"measurement": "SEAP/vibility", "setting": "[2]; 180 μM", "result": 1.64}, {"measurement": "IC50", "setting": "human hepatoma G2 cells", "result": "> 20", "unit": "µM"}, {"measurement": "IC50", "setting": "rat glioma C6 cells", "result": "> 20", "unit": "µM"}, {"measurement": "IC50", "setting": "[3]", "result": "> 20", "unit": "µM"}, {"measurement": "Relative MTT viability (%)", "setting": "hTERT-BJ1 cells; 1.8 μM", "result": "102 ± 3.3", "unit": "%"}, {"measurement": "Relative MTT viability (%)", "setting": "hTERT-BJ1 cells; 18 μM", "result": "90 ± 6.0", "unit": "%"}, {"measurement": "Relative MTT viability (%)", "setting": "hTERT-BJ1 cells; 180 μM", "result": "70 ± 6.8", "unit": "%"}, {"measurement": "Relative SEAP activity (%)", "setting": "[4]; 1.8 μM", "result": "35 ± 14.1", "unit": "%"}, {"measurement": "SEAP/vibility", "setting": "[4]; 1.8 μM", "result": 0.35}, {"measurement": "Relative SEAP activity (%)", "setting": "[4]; 18 μM", "result": "22 ± 24.4", "unit": "%"}, {"measurement": "SEAP/vibility", "setting": "[4]; 18 μM", "result": 0.25}, {"measurement": "Relative SEAP activity (%)", "setting": "[4]; 180 μM", "result": "31 ± 7.9", "unit": "%"}, {"measurement": "SEAP/vibility", "setting": "[4]; 180 μM", "result": 0.44}]}
{"smiles": "O=C(Nc1ccc(NC(=O)c2cc(F)c(F)cc2F)c2c1C(=O)c1ccccc1C2=O)c1cc(F)c(F)cc1F", "note": "[VI15, 1,4-Bis(2,4,5-trifluorobenzoylamido)-9,10-anthracenedione]", "values": [{"measurement": "Relative MTT viability (%)", "setting": "[1]; 1.6 μM", "result": "90 ± 6.6", "unit": "%"}, {"measurement": "Relative MTT viability (%)", "setting": "[1]; 16 μM", "result": "81 ± 1.9", "unit": "%"}, {"measurement": "Relative MTT viability (%)", "setting": "[1]; 161 μM", "result": "60 ± 5.0", "unit": "%"}, {"measurement": "Relative SEAP activity (%)", "setting": "[2]; 1.6 μM", "result": "109 ± 10.8", "unit": "%"}, {"measurement": "SEAP/vibility", "setting": "[2]; 1.6 μM", "result": 1.20}, {"measurement": "Relative SEAP activity (%)", "setting": "[2]; 16 μM", "result": "118 ± 10.3", "unit": "%"}, {"measurement": "SEAP/vibility", "setting": "[2]; 16 μM", "result": 1.45}, {"measurement": "Relative SEAP activity (%)", "setting": "[2]; 161 μM", "result": "104 ± 8.2", "unit": "%"}, {"measurement": "SEAP/vibility", "setting": "[2]; 161 μM", "result": 1.73}, {"measurement": "IC50", "setting": "human hepatoma G2 cells", "result": "> 20", "unit": "µM"}, {"measurement": "IC50", "setting": "rat glioma C6 cells", "result": "> 20", "unit": "µM"}, {"measurement": "IC50", "setting": "[3]", "result": 3.35, "unit": "µM"}, {"measurement": "Relative MTT viability (%)", "setting": "hTERT-BJ1 cells; 1.6 μM", "result": "104 ± 4.5", "unit": "%"}, {"measurement": "Relative MTT viability (%)", "setting": "hTERT-BJ1 cells; 16 μM", "result": "89 ± 5.0", "unit": "%"}, {"measurement": "Relative MTT viability (%)", "setting": "hTERT-BJ1 cells; 161 μM", "result": "80 ± 3.8", "unit": "%"}, {"measurement": "Relative SEAP activity (%)", "setting": "[4]; 1.6 μM", "result": "117 ± 14.2", "unit": "%"}, {"measurement": "SEAP/vibility", "setting": "[4]; 1.6 μM", "result": 1.12}, {"measurement": "Relative SEAP activity (%)", "setting": "[4]; 16 μM", "result": "114 ± 20.4", "unit": "%"}, {"measurement": "SEAP/vibility", "setting": "[4]; 16 μM", "result": 1.29}, {"measurement": "Relative SEAP activity (%)", "setting": "[4]; 161 μM", "result": "115 ± 30.8", "unit": "%"}, {"measurement": "SEAP/vibility", "setting": "[4]; 161 μM", "result": 1.44}]}
